Several values for one entry are separate records, joined by “and”; a condition that tells them apart may be missing. Equal values may be shown once. Toxic doses and inconclusive results are not listed.

In the assay the test system is P388 leukemia ip, CD2F1 mice, survival T/C. The experiment in a line: NCI In Vivo Anticancer Drug Screen. Data for tumor model P388 Leukemia (intraperitoneal) in CD2F1 (CDF1) mice. The following applies: endpoint: median survival time, higher = longer survival. Put shortly:
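Mice carrying the transplanted tumor received test compound or vehicle. Survival was recorded in each group, and the value is the treated-group measurement divided by that of the vehicle-treated control group.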

Setting [1] is: dose: 50.0 mg/kg/injection, schedule: Q01DX005 (ip), vehicle: saline with Tween-80.
The mark [2] stands for this setting: dose: 100.0 mg/kg/injection, schedule: Q01DX005 (ip), vehicle: saline with Tween-80.
The mark [3] stands for this setting: dose: 200.0 mg/kg/injection, schedule: Q01DX005 (ip), vehicle: saline with Tween-80.
[4] abbreviates: dose: 100.0 mg/kg/injection, schedule: Q01DX001 (ip), vehicle: saline.

In the case of `COc1cccc2c1C(=O)c1c(O)c3c(c(O)c1C2=O)CC(O)(C(C)=O)CC3OC1CC(N)C(O)C(C)O1` (centres undefined), the T/C reads like this: (dose: 0.63 mg/kg/injection, schedule: Q01DX009 (ip), vehicle: water) 150 % of control and 163 % of control; (dose: 1.25 mg/kg/injection, schedule: Q01DX009 (ip), vehicle: water) 158 % of control [middle of 7 runs]; (dose: 1.5 mg/kg/injection, schedule: Q01DX009 (ip), vehicle: water) 103 % of control; (dose: 2.5 mg/kg/injection, schedule: Q01DX009 (ip), vehicle: water) 160 % of control [middle of 16 runs]; (dose: 2.9 mg/kg/injection, schedule: Q01DX009 (ip), vehicle: saline) 102 % of control; (dose: 3.0 mg/kg/injection, schedule: Q01DX009 (ip), vehicle: water) 110 % of control. In addition, the T/C reads like this: (dose: 3.13 mg/kg/injection, schedule: Q01DX009 (ip), vehicle: water) 155 % of control; (dose: 5.0 mg/kg/injection, schedule: Q01DX009 (ip), vehicle: water) 167 % of control [middle of 17 runs]; (dose: 6.0 mg/kg/injection, schedule: Q01DX009 (ip), vehicle: water) 110 % of control; (dose: 6.25 mg/kg/injection, schedule: Q01DX009 (ip), vehicle: water) 171 % of control; (dose: 8.0 mg/kg/injection, schedule: Q04DX003 (ip), vehicle: water) 114 % of control; (dose: 10.0 mg/kg/injection, schedule: Q01DX009 (ip), vehicle: water) 178 % of control [middle of 14 runs]. Moreover, the T/C reads like this: (dose: 11.0 mg/kg/injection, schedule: Q04DX003 (ip), vehicle: water) 103 % of control and 109 % of control; (dose: 12.0 mg/kg/injection, schedule: Q01DX009 (ip), vehicle: water) 116 % of control; (dose: 12.5 mg/kg/injection, schedule: Q01DX009 (ip), vehicle: water) 174 % of control; (dose: 15.0 mg/kg/injection, schedule: Q04DX003 (ip), vehicle: water) 121 % of control; (dose: 16.0 mg/kg/injection, schedule: Q04DX003 (ip), vehicle: water) 110 % of control and 122 % of control; (dose: 20.0 mg/kg/injection, schedule: Q01DX009 (ip), vehicle: other) 155 % of control. For the same molecule, the T/C (dose: 21.9 mg/kg/injection, schedule: Q04DX003 (ip), vehicle: water) is 97 % of control and 118 % of control; the T/C (dose: 23.4 mg/kg/injection, schedule: Q01DX009 (ip), vehicle: saline) is 188 % of control; the T/C (dose: 24.0 mg/kg/injection, schedule: Q01DX009 (ip), vehicle: water) is 108 % of control; the T/C (dose: 25.0 mg/kg/injection, schedule: Q01DX009 (ip), vehicle: water) was 197 % of control; the T/C (dose: 40.0 mg/kg/injection, schedule: Q01DX009 (ip), vehicle: water) is 104 % of control; the T/C (dose: 43.8 mg/kg/injection, schedule: Q04DX003 (ip), vehicle: water) is 106 % of control. Moreover, the T/C (dose: 64.0 mg/kg/injection, schedule: Q04DX003 (ip), vehicle: water) is 110 % of control; the T/C (dose: 87.5 mg/kg/injection, schedule: Q04DX003 (ip), vehicle: water) is 157 % of control; the T/C (dose: 88.0 mg/kg/injection, schedule: Q04DX003 (ip), vehicle: water) is 182 % of control; the T/C (dose: 120.0 mg/kg/injection, schedule: Q04DX003 (ip), vehicle: water) was 160 % of control; the T/C (dose: 128.0 mg/kg/injection, schedule: Q04DX003 (ip), vehicle: water) was 168 % of control and 172 % of control; the T/C (dose: 175.0 mg/kg/injection, schedule: Q04DX003 (ip), vehicle: water) was 182 % of control. The T/C is, setting by setting: (dose: 240.0 mg/kg/injection, schedule: Q04DX003 (ip), vehicle: water) 101 % of control; (dose: 256.0 mg/kg/injection, schedule: Q04DX003 (ip), vehicle: water) 177 % of control; (dose: 350.0 mg/kg/injection, schedule: Q04DX003 (ip), vehicle: water) 97 % of control.
`O=C(Nc1cccc2c1C(=O)c1cccc(Nc3ccc(NC(=O)c4ccccc4)c4c3C(=O)c3ccccc3C4=O)c1C2=O)c1ccccc1`: the T/C is, setting by setting: under setting [1], 95 % of control; under setting [2], 89 % of control; under setting [3], 93 % of control.
Take `S=C(N\N=C/C(/C=C/c1ccccc1)=N\NC(=S)Nc1ccc(Br)cc1)Nc1ccc(Br)cc1`: the T/C was 106 % of control (dose: 100.0 mg/kg/injection, schedule: Q04DX002 (ip), vehicle: Klucel (hydroxypropylcellulose) (HPC)); 97 % of control (dose: 200.0 mg/kg/injection, schedule: Q04DX002 (ip), vehicle: Klucel (hydroxypropylcellulose) (HPC)); 95 % of control (dose: 400.0 mg/kg/injection, schedule: Q04DX002 (ip), vehicle: Klucel (hydroxypropylcellulose) (HPC)).
On to `CC(=O)CN1CCSC1=N`, for which the T/C under setting [4] is 97 % of control.
In the case of `Cc1cc(=O)c2cc3ccc4cccc5ccc(c2[nH]1)c3c45`, the T/C under setting [1] is 98 % of control, the T/C under setting [2] is 103 % of control and the T/C under setting [3] is 100 % of control.
Take `O=C(CBr)c1cccc(OC(=O)c2ccccc2)c1`: the T/C is, setting by setting: (dose: 6.25 mg/kg/injection, schedule: Q01DX009 (ip), vehicle: saline with Tween-80) 108 % of control; (dose: 12.5 mg/kg/injection, schedule: Q01DX009 (ip), vehicle: saline with Tween-80) 108 % of control.
With `C/C=C(\C)c1cc(=O)c2c(C)cc3c(c2o1)C(=O)c1c(OC)cccc1C3=O`, the T/C is, setting by setting: (dose: 100.0 mg/kg/injection, schedule: Q01DX001 (ip), vehicle: saline with Tween-80) 96 % of control; (dose: 200.0 mg/kg/injection, schedule: Q01DX001 (ip), vehicle: saline with Tween-80) 93 % of control; (dose: 400.0 mg/kg/injection, schedule: Q01DX001 (ip), vehicle: saline with Tween-80) 89 % of control.
For the molecule `O=C(O)C(=O)O.OO.OO.[O]=[V]`, the T/C (dose: 0.94 mg/kg/injection, schedule: Q01DX005 (ip), vehicle: saline) was 92 % of control and the T/C (dose: 3.75 mg/kg/injection, schedule: Q01DX005 (ip), vehicle: saline) is 110 % of control.
For `O=C(CCSSc1ccccn1)ON1C(=O)CCC1=O`, the T/C was 102 % of control under setting [4]; 107 % of control (dose: 200.0 mg/kg/injection, schedule: Q01DX001 (ip), vehicle: saline); 100 % of control (dose: 400.0 mg/kg/injection, schedule: Q01DX001 (ip), vehicle: saline).
Regarding `Cc1cccc(-n2c(C)nc3c(c(C)c(C)n3-c3ccccc3)c2=N)c1`, the T/C was 97 % of control (dose: 6.25 mg/kg/injection, schedule: Q01DX005 (ip), vehicle: Klucel (hydroxypropylcellulose) (HPC)); 100 % of control (dose: 12.5 mg/kg/injection, schedule: Q01DX005 (ip), vehicle: Klucel (hydroxypropylcellulose) (HPC)); 99 % of control (dose: 25.0 mg/kg/injection, schedule: Q01DX005 (ip), vehicle: Klucel (hydroxypropylcellulose) (HPC)).
Take `CN1c2cc3ccccc3cc2N(C)c2cc3ccccc3cc21`: the T/C is, setting by setting: (dose: 50.0 mg/kg/injection, schedule: Q01DX005 (ip), vehicle: Klucel (hydroxypropylcellulose) (HPC)) 90 % of control; (dose: 200.0 mg/kg/injection, schedule: Q01DX005 (ip), vehicle: Klucel (hydroxypropylcellulose) (HPC)) 88 % of control.
Turning to `CCCCCCCCCCCCCC[N+]1([O-])CCCC1`, the T/C (dose: 50.0 mg/kg/injection, schedule: Q01DX009 (ip), vehicle: saline) is 94 % of control.
In the case of `O=C1C(N2CC2)=C(N2CC2)C(=O)C(N2CC2)=C1N1CC1`, the T/C was 110 % of control (dose: 1.8 micrograms/kg/injection, schedule: Q01DX009 (ip), vehicle: saline); 115 % of control (dose: 2.7 micrograms/kg/injection, schedule: Q01DX009 (ip), vehicle: saline); 112 % of control (dose: 4.0 micrograms/kg/injection, schedule: Q01DX009 (ip), vehicle: saline).
For `COCCOCn1cccc1Cc1ccc(OC)cc1`, the T/C reads like this: (dose: 100.0 mg/kg/injection, schedule: Q01DX001 (ip), vehicle: distilled water + Tween-80 + alcohol) 100 % of control; (dose: 200.0 mg/kg/injection, schedule: Q01DX001 (ip), vehicle: distilled water + Tween-80 + alcohol) 105 % of control; (dose: 400.0 mg/kg/injection, schedule: Q01DX001 (ip), vehicle: distilled water + Tween-80 + alcohol) 96 % of control.
With `O=c1[nH]c(=S)[nH]cc1Oc1ccc(Cl)cc1Cl`, the T/C is, setting by setting: (dose: 50.0 mg/kg/injection, schedule: Q01DX009 (ip), vehicle: saline with Tween-80) 94 % of control; (dose: 100.0 mg/kg/injection, schedule: Q01DX009 (ip), vehicle: saline with Tween-80) 93 % of control; (dose: 200.0 mg/kg/injection, schedule: Q01DX009 (ip), vehicle: saline with Tween-80) 95 % of control; (dose: 400.0 mg/kg/injection, schedule: Q01DX009 (ip), vehicle: saline with Tween-80) 108 % of control.
